Molecules are shown by their SMILES.

The assay deals with phosphorylated active hERK2 enzyme (Homo sapiens (Human), UniProt P28482). The note with it: read-out: ERK2 IC50; IMAP-FP assay; 0.5 nM hERK2, 30 μM ATP; 10 point titration, 3 μM starting concentration.
phosphorylated active hERK2 enzyme, sequence (P28482 whole entry): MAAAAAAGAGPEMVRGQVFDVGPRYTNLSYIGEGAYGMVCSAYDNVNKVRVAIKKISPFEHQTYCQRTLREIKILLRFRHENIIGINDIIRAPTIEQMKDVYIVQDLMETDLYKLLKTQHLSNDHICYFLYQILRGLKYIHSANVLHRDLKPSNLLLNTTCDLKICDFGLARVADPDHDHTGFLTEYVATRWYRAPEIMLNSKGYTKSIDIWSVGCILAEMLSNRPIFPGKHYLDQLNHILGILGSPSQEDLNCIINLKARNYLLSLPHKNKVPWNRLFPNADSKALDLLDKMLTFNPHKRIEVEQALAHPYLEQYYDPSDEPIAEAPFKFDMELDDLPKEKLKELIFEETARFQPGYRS
Take `COC[C@@H](NC(=O)Nc1cc2cnn(-c3ccnc(C)c3)c2cn1)c1ccccn1` [Example 210, 1-[(1S)-2-methoxy-1-pyridin-2-ylethyl]-3-[1-(2-methylpyridin-4-yl)-1H-pyrazolo[3,4-c]pyridin-5-yl]urea]: the IC50 was found to be 745 nM.
For `Cc1cc(-n2ncc3cc(NC(=O)N[C@@H](c4ccccc4)C(C)O)ncc32)ccn1` (stereo partly drawn) [Example 297, (S)-1-(2-hydroxy-1-phenylpropyl)-3-(1-(2-methylpyridin-4-yl)-1H-pyrazolo[3,4-c]pyridin-5-yl)urea] the value was 1.06 nM; for `Cc1cc(-n2ncc3cc(NC(=O)N[C@@H]4CCN(c5ccc(F)cc5)C4)ncc32)ccn1` [Example 34, 1-[(3R)-1-(4-fluorophenyl)pyrrolidin-3-yl]-3-[1-(2-methylpyridin-4-yl)-1H-pyrazolo[3,4-c]pyridin-5-yl]urea], 762 nM; for `Cc1cc(-n2ncc3cc(NC(=O)N[C@H]4CN(C)C[C@@H]4c4cnn(C)c4)ncc32)ccn1` [Example 165, 1-[(3R,4S)-1-methyl-4-(1-methyl-1H-pyrazol-4-yl)pyrrolidin-3-yl]-3-[1-(2-methylpyridin-4-yl)-1H-pyrazolo[3,4-c]pyridin-5-yl)urea], 831 nM.

Broadly, the IC50 is the concentration that inhibits the measured activity by half.

Values taken from patent US9884048B2, “ERK inhibitors” (Merck Sharp & Dohme Corp., priority 2014, dated 2018).
